# Measurements published in publication PMC6204823, “Synthesis of 3-aminocoumarin-N-benzylpyridinium conjugates with nanomolar inhibitory activity against acetylcholinesterase” (Beilstein Journal of Organic Chemistry, 2018).
# Test system: not listed separately
# Experiment: Cytotoxicity against MRC-5 normal embryonic lung cell
# Format: cell-based
# Details: human, MRC-5 normal embryonic lung cells; concentration of 50 μg/mL
# Description: For chlorine as a substituent, the activity followed the order of ortho > meta > para. […] For fluorine as a substituent, the activity also followed the order of ortho > meta ≈ para. […].
row,SMILES,cytotoxicity at 50 μg/mL [%]
1,COc1cc2cc(NC(=O)c3cc[n+](Cc4cccc(F)c4F)cc3)c(=O)oc2cc1OC.[Br-] [compound 9h],0

# Biological target: T1, Electrophorus electricus AChE (Electrophorus electricus, UniProt O42275)
# T1 construct: purchased Sigma-Aldrich, USA Type VI-S
# T1 sequence (O42275 24-633): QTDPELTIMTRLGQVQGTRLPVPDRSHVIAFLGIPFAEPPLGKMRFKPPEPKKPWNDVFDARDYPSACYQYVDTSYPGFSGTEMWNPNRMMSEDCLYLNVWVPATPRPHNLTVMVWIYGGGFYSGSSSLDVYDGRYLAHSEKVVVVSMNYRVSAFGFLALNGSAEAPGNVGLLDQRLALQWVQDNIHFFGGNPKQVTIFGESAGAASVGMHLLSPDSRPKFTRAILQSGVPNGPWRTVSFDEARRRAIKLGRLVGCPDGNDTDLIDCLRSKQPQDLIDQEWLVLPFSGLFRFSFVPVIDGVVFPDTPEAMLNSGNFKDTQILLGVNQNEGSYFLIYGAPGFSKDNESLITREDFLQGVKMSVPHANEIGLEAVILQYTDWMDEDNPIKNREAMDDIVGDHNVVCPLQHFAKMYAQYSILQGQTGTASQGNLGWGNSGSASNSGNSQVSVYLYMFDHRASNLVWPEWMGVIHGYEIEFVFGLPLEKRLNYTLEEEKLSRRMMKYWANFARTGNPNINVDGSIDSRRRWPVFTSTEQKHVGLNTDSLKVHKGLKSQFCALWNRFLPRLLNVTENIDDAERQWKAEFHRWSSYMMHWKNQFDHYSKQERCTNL
# Experiment: biochemical
# Details: not given
# Experimental: The AChE inhibitory activity of the synthesized compounds was evaluated by Ellman’s method using Electrophorus electricus AChE; donepezil hydrochloride and tacrine were used as the reference compounds.
# AChE (Electrophorus electricus, Type VI-S, lyophilized powder) was purchased from Sigma-Aldrich, USA. Acetylthiocholine, 5,5′-dithiobis(2-nitrobenzoic acid), sodium dihydrogen phosphate, disodium hydrogen phosphate, and sodium hydrogen carbonate were obtained from Fluka, Switzerland. AChE inhibitory activity was […]
# USA) based on Ellman’s method with slight modifications. For each assay, 200 μL of the assay medium containing 100 μL of 0.1 M phosphate buffer (pH 8), 20 μL of 3.3 mM 5,5′-dithiobis(2-nitrobenzoic acid) in 0.1 M phosphate buffer (pH 7) containing 6 mM NaHCO3, 20 μL of the test compounds at different concentrations in methanol, and 40 μL of 0.15 unit/mL AChE in phosphate buffer (pH 8) were incubated at 37 °C for 20 min. Subsequently, 20 μL of 5 mM acetylthiocholine iodide in water was added, and the absorbance was measured at 412 nm every 20 s for 3 min. The rate of each reaction was calculated by Microplate Manager software.
# The blank percentage of inhibition of the tested compounds was determined by comparing the rate of the sample to the blank. The IC50 value was determined by nonlinear regression of the log inhibitor concentration versus the percentage of inhibition using GraphPad Prism6. Donepezil hydrochloride and tacrine were applied as the reference compounds. All samples were assayed in triplicate.
SMILES,fold lower IC50 than donepezil hydrochloride [fold],fold lower IC50 than tacrine [fold]
COc1cc2cc(NC(=O)c3cc[n+](Cc4cccc(F)c4F)cc3)c(=O)oc2cc1OC.[Br-] [compound 9h],35,124

# Same assay, conditions: concentration producing 50% inhibition of enzyme activity; triplicate independent experiments
row,SMILES,IC50 [nM]
1,COc1cc2cc(NC(=O)c3cc[n+](Cc4cccc(F)c4F)cc3)c(=O)oc2cc1OC.[Br-] [compound 9h],1.53 ± 0.01
2,O=C(Nc1cc2ccccc2oc1=O)c1cc[n+](Cc2ccccc2)cc1 [compound 4a],71.9 ± 3.4
3,COc1cc2cc(NC(=O)c3cc[n+](Cc4cccc(F)c4)cc3)c(=O)oc2cc1OC [compound 9f],5.04 ± 0.26
4,COc1cc2cc(NC(=O)c3cc[n+](Cc4ccc(Cl)cc4)cc3)c(=O)oc2cc1OC [compound 9d],293 ± 13.6
5,COc1cc2cc(NC(=O)c3cc[n+](Cc4c(F)cccc4F)cc3)c(=O)oc2cc1OC [compound 9i],2.43 ± 0.18
6,COc1cc2cc(NC(=O)c3cc[n+](Cc4ccccc4Cl)cc3)c(=O)oc2cc1OC [compound 9b],6.03 ± 0.18
7,COc1cc2cc(NC(=O)c3cc[n+](Cc4ccccc4F)cc3)c(=O)oc2cc1OC [compound 9e],3.05 ± 0.28
8,COc1cc2cc(NC(=O)c3cc[n+](Cc4cccc(Cl)c4)cc3)c(=O)oc2cc1OC [compound 9c],11.5 ± 0.63
9,COc1cc2cc(NC(=O)c3cc[n+](Cc4ccc(F)cc4)cc3)c(=O)oc2cc1OC [compound 9g],5.31 ± 0.38
10,COc1cc2cc(NC(=O)Cc3cc[n+](Cc4ccccc4)cc3)c(=O)oc2cc1OC [compound 10a],1087.7 ± 0.05
11,COc1cc2cc(NC(=O)c3cc[n+](Cc4ccccc4)cc3)c(=O)oc2cc1OC [compound 9a],12.5 ± 0.71

# Same assay, conditions: read-out: % Inhibition at concentration of 1 μM, 1 μM
row,SMILES,inhibition at 1 µM [%]
1,"Nc1cc2ccccc2oc1=O [compound 3, 3-aminocoumarin]",12
2,O=C(Cc1cc[n+](Cc2ccccc2)cc1)Nc1cc2ccccc2oc1=O [compound 5a],10
3,COc1cc2cc(NC(=O)Cc3ccncc3)c(=O)oc2cc1OC [compound 10],< 10
4,COc1cc2cc(N)c(=O)oc2cc1OC [compound 8],5
5,O=C(Cc1ccncc1)Nc1cc2ccccc2oc1=O [compound 5],< 10
6,COc1cc2cc(NC(=O)c3ccncc3)c(=O)oc2cc1OC [compound 9],< 10
